Source: the supplement of paper PMC10627819

Assays:
S. aureus DSM 20231 [1] = experiment: fitness (endpoint OD595 vs no drug) (fraction); higher = more growth
Outline: (§1)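 At 37 °C, bacteria in TSB, LB Lennox or CY were grown in 384-well plates from a starting OD595 of 0.01. OD595 was measured every 30 min for 14 h, with the first reading used as background. Fitness is the optical density at the switch to stationary phase as a fraction of the robust mean of no-drug control wells, capped at 1.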

S. aureus Newman [2] = experiment: as above
Outline: as §1

S. pneumoniae D39V [3] = experiment: as above
Outline: as §1

B. subtilis 168 = experiment: Bliss interaction score (quartile over a dose matrix) (fitness difference); higher = more antagonism (negative = synergy)
Outline: (§2)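 Growth was read as OD595 when cultures entered stationary phase, and each value was divided by the plate's robust no-drug mean and capped at 1. This normalised ratio is the fitness value, and fitness for each single drug came from the combination data. The Bliss score subtracts the expected fitness, taken as the product, from the observed fitness and is given as quartiles across technical, biological and donor/recipient replicates.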

S. aureus DSM 20231 [4] = experiment: as above
Outline: as §2

S. aureus Newman [5] = experiment: as above
Outline: as §2

S. pneumoniae D39V [6] = experiment: as above
Outline: as §2
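Wherever Bliss interaction score (quartile over a dose matrix) is given: first quartile when negative (synergy) and third quartile when positive (antagonism).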
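Wherever fitness (endpoint OD595 vs no drug) is given: OD595 on entry to stationary phase over no-drug wells; at most 1.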

CC1(C)S[C@@H]2[C@H](NC(=O)[C@H](N)c3ccc(O)cc3)C(=O)N2[C@H]1C(=O)O [Amoxicillin] + COc1ccc(C[C@H](N)C(=O)N[C@H]2[C@@H](O)[C@H](n3cnc4c(N(C)C)ncnc43)O[C@@H]2CO)cc1 [Puromycin]
Settings | fitness
S. aureus DSM 20231 [1], first compound 0.0625 µg/mL, partner 0.39 µg/mL | 0.53
S. aureus DSM 20231 [1], first compound 0.0625 µg/mL, partner 0.78 µg/mL | 0.566
S. aureus DSM 20231 [1], first compound 0.0625 µg/mL, partner 1.56 µg/mL | 0.517
S. aureus DSM 20231 [1], first compound 0.125 µg/mL, partner 0.39 µg/mL | 0.397
S. aureus DSM 20231 [1], first compound 0.125 µg/mL, partner 0.78 µg/mL | 0.448
S. aureus DSM 20231 [1], first compound 0.25 µg/mL, partner 0.39 µg/mL | 0.199
S. aureus DSM 20231 [1], first compound 0.25 µg/mL, partner 0.78 µg/mL | 0.133
S. aureus DSM 20231 [1], first compound 0.25 µg/mL, partner 1.56 µg/mL | 0.0396
S. aureus Newman [2], first compound 0.0625 µg/mL, partner 0.39 µg/mL | 0.874
S. aureus Newman [2], first compound 0.0625 µg/mL, partner 0.78 µg/mL | 0.879
S. aureus Newman [2], first compound 0.0625 µg/mL, partner 1.56 µg/mL | 0.9
S. aureus Newman [2], first compound 0.125 µg/mL, partner 0.39 µg/mL | 0.904
S. aureus Newman [2], first compound 0.125 µg/mL, partner 0.78 µg/mL | 0.882
S. aureus Newman [2], first compound 0.125 µg/mL, partner 1.56 µg/mL | 0.899
S. aureus Newman [2], first compound 0.25 µg/mL, partner 0.39 µg/mL | 0.813
S. pneumoniae D39V [3], first compound 0.0008 µg/mL, partner 1 µg/mL | 0.965
S. pneumoniae D39V [3], first compound 0.0008 µg/mL, partner 2 µg/mL | 0.953
S. pneumoniae D39V [3], first compound 0.0008 µg/mL, partner 4 µg/mL | 0.88
S. pneumoniae D39V [3], first compound 0.0015 µg/mL, partner 1 µg/mL | ≥ 1
S. pneumoniae D39V [3], first compound 0.0015 µg/mL, partner 2 µg/mL | ≥ 1
S. pneumoniae D39V [3], first compound 0.0015 µg/mL, partner 4 µg/mL | 0.954
S. pneumoniae D39V [3], first compound 0.003 µg/mL, partner 1 µg/mL | ≥ 1
S. pneumoniae D39V [3], first compound 0.003 µg/mL, partner 2 µg/mL | 0.962
S. pneumoniae D39V [3], first compound 0.003 µg/mL, partner 4 µg/mL | 0.891

one replicate
Settings | fitness
S. aureus DSM 20231 [1], first compound 0.0625 µg/mL, partner 3.12 µg/mL | 0.58
S. aureus DSM 20231 [1], first compound 0.0625 µg/mL, partner 6.24 µg/mL | 0.293
S. aureus DSM 20231 [1], first compound 0.125 µg/mL, partner 3.12 µg/mL | 0.417
S. aureus DSM 20231 [1], first compound 0.125 µg/mL, partner 6.24 µg/mL | 0.0695
S. aureus DSM 20231 [1], first compound 0.25 µg/mL, partner 3.12 µg/mL | 0.0126
S. aureus DSM 20231 [1], first compound 0.25 µg/mL, partner 6.24 µg/mL | 0.0079
S. aureus DSM 20231 [1], first compound 0.5 µg/mL, partner 0.39 µg/mL | 0.0239
S. aureus DSM 20231 [1], first compound 0.5 µg/mL, partner 0.78 µg/mL | 0.0124
S. aureus DSM 20231 [1], first compound 0.5 µg/mL, partner 1.56 µg/mL | 0.0417
S. pneumoniae D39V [3], first compound 0.006 µg/mL, partner 1 µg/mL | 0.617
S. pneumoniae D39V [3], first compound 0.006 µg/mL, partner 2 µg/mL | 0.685
S. pneumoniae D39V [3], first compound 0.006 µg/mL, partner 4 µg/mL | 0.612

Settings | Bliss interaction score
B. subtilis 168 | 0.0627
S. aureus DSM 20231 [4] | 0.0606
S. aureus Newman [5] | 0.0595
S. pneumoniae D39V [6] | 0.277
